From ChEMBL document CHEMBL4219129, “Design, synthesis and biological evaluation of spiropyrimidinetriones oxazolidinone derivatives as antibacterial agents” (2018)
≈ marks a conversion by molar mass, not a printed value.

Tests used:
Type in all cases: functional
Enterococcus faecalis [1] = test: Antibacterial activity against Enterococcus faecalis ATCC 29212
Enterococcus faecium [2] = test: Antibacterial activity against linezolid-resistant Enterococcus faecium 303
Enterococcus faecium [3] = test: Antibacterial activity against vancomycin-resistant Enterococcus faecium 32/133
Enterococcus faecium [4] = test: Antibacterial activity against vancomycin-resistant Enterococcus faecium 6A
Enterococcus faecium [5] = test: Antibacterial activity against Enterococcus faecium ATCC 35667
Escherichia coli [6] = test: Antibacterial activity against Escherichia coli MG1655; conditions: K-12 substr. MG1655
Staphylococcus aureus [7] = test: Antibacterial activity against methicillin-resistant Staphylococcus aureus 1201984
Staphylococcus aureus [8] = test: Antibacterial activity against linezolid-resistant Staphylococcus aureus O-128
Staphylococcus aureus [9] = test: Antibacterial activity against Staphylococcus aureus ATCC 29213
Staphylococcus aureus [10] = test: Antibacterial activity against Staphylococcus aureus FDA 209P
Enterococcus faecalis [11] = test: Antibacterial activity against linezolid-resistant Enterococcus faecalis ATCC 29212
Enterococcus faecalis [12] = test: Antibacterial activity against Enterococcus faecalis ATCC 19434
Staphylococcus aureus [13] = test: Antibacterial activity against Staphylococcus aureus Mu50 ATCC 700699
[14] = test system: Staphylococcus epidermidis; test: Antibacterial activity against methicillin-resistant Staphylococcus epidermidis ATCC 35984
Staphylococcus aureus [15] = test: Antibacterial activity against PVL positive Staphylococcus aureus
Enterococcus faecalis [16] = test: Antibacterial activity against Enterococcus faecalis ATCC 51299
Staphylococcus aureus [17] = test: Antibacterial activity against methicillin-resistant Staphylococcus aureus 562
[18] = test system: Staphylococcus epidermidis; test: Antibacterial activity against linezolid-resistant Staphylococcus epidermidis 1117174
Staphylococcus aureus [19] = test: Antibacterial activity against […] Staphylococcus aureus ATCC 13709 SMITH
Enterococcus faecium [20] = test: Antibacterial activity against Enterococcus faecium 575
Enterococcus faecium [21] = test: Antibacterial activity against vancomycin-resistant Enterococcus faecium 134
Staphylococcus aureus [22] = test: Antibacterial activity against methicillin-resistant Staphylococcus aureus USA300 BAA-1556
[23] = test system: Staphylococcus epidermidis; test: Antibacterial activity against Staphylococcus epidermidis ATCC 12228
Enterococcus faecium [24] = test: Antibacterial activity against vancomycin-resistant Enterococcus faecium 31/132
Enterococcus faecium [25] = test: Antibacterial activity against Enterococcus faecium ATCC 19434
[26] = test system: Staphylococcus epidermidis; test: Antibacterial activity against linezolid-resistant Staphylococcus epidermidis 1089191
Enterococcus faecium [27] = test: Antibacterial activity against Enterococcus faecium 45/146
Enterococcus faecium [28] = test: Antibacterial activity against vancomycin-resistant Enterococcus faecium 03080 DS
Enterococcus faecium [29] = test: Antibacterial activity against Enterococcus faecium NLNZ 572
Staphylococcus aureus [30] = test: Antibacterial activity against methicillin-resistant Staphylococcus aureus DB-00026
Escherichia coli [31] = test: Antibacterial activity against TolC-deficient Escherichia coli
Enterococcus faecium [32] = test: Antibacterial activity against vancomycin-resistant Enterococcus faecium R1

Row | SMILES | MIC (Enterococcus faecalis [1]) | MIC (Enterococcus faecium [2]) | MIC (Enterococcus faecium [5]) | MIC (Escherichia coli [6]) | MIC (Staphylococcus aureus [7]) | MIC (Staphylococcus aureus [8]) | MIC (Staphylococcus aureus [9]) | MIC (Staphylococcus aureus [10]) | MIC (Enterococcus faecalis [11]) | MIC [14] | MIC (Staphylococcus aureus [15]) | MIC (Staphylococcus aureus [17]) | MIC [18] | MIC (Staphylococcus aureus [19]) | MIC (Staphylococcus aureus [22]) | MIC [23] | MIC (Enterococcus faecium [24]) | MIC [26] | MIC (Staphylococcus aureus [30]) | MIC (Escherichia coli [31]) | further results
1 | CC(=O)NC[C@H]1CN(c2ccc(-c3ccc4c(c3)CC3(C(=O)NC(=O)NC3=O)C3CCCCN43)c(F)c2)C(=O)O1 (some centres undefined) | 2 µg/mL (≈ 3.64 µM) | 16 µg/mL (≈ 29.1 µM) | 1 µg/mL (≈ 1.82 µM) | > 32 µg/mL | 2 µg/mL (≈ 3.64 µM) | 8 µg/mL (≈ 14.6 µM) | 2 µg/mL (≈ 3.64 µM) | 2 µg/mL (≈ 3.64 µM) | 4 µg/mL (≈ 7.28 µM) | ≤ 1 µg/mL | 4 µg/mL (≈ 7.28 µM) | ≤ 1 µg/mL | > 32 µg/mL | 16 µg/mL (≈ 29.1 µM) | 2 µg/mL (≈ 3.64 µM) | 2 µg/mL (≈ 3.64 µM) | 2 µg/mL (≈ 3.64 µM) | > 32 µg/mL | 2 µg/mL (≈ 3.64 µM) | 4 µg/mL (≈ 7.28 µM) | MIC (Enterococcus faecium [3]): 4 µg/mL (≈ 7.28 µM); MIC (Enterococcus faecium [4]): 1 µg/mL (≈ 1.82 µM); MIC (Enterococcus faecalis [12]): 2 µg/mL (≈ 3.64 µM); MIC (Staphylococcus aureus [13]): ≤ 1 µg/mL; MIC (Enterococcus faecalis [16]): 1 µg/mL (≈ 1.82 µM); MIC (Enterococcus faecium [20]): 2 µg/mL (≈ 3.64 µM); MIC (Enterococcus faecium [21]): 4 µg/mL (≈ 7.28 µM); MIC (Enterococcus faecium [25]): 2 µg/mL (≈ 3.64 µM); MIC (Enterococcus faecium [27]): 2 µg/mL (≈ 3.64 µM); MIC (Enterococcus faecium [28]): 1 µg/mL (≈ 1.82 µM); MIC (Enterococcus faecium [29]): 4 µg/mL (≈ 7.28 µM); MIC (Enterococcus faecium [32]): 1 µg/mL (≈ 1.82 µM)
2 | COC(=O)NC[C@H]1CN(c2ccc(-c3ccc4c(c3)CC3(C(=O)NC(=O)NC3=O)C3CCCN43)c(F)c2)C(=O)O1 (some centres undefined) | 8 µg/mL (≈ 14.5 µM) | > 32 µg/mL | 8 µg/mL (≈ 14.5 µM) | > 32 µg/mL | 2 µg/mL (≈ 3.63 µM) | 16 µg/mL (≈ 29 µM) | 2 µg/mL (≈ 3.63 µM) | 4 µg/mL (≈ 7.25 µM) | 16 µg/mL (≈ 29 µM) | 2 µg/mL (≈ 3.63 µM) | 2 µg/mL (≈ 3.63 µM) | 2 µg/mL (≈ 3.63 µM) | 32 µg/mL (≈ 58 µM) | > 32 µg/mL | 4 µg/mL (≈ 7.25 µM) | 2 µg/mL (≈ 3.63 µM) | 16 µg/mL (≈ 29 µM) | 32 µg/mL (≈ 58 µM) | 4 µg/mL (≈ 7.25 µM) | 4 µg/mL (≈ 7.25 µM) | MIC (Enterococcus faecium [3]): 16 µg/mL (≈ 29 µM); MIC (Enterococcus faecium [4]): 8 µg/mL (≈ 14.5 µM); MIC (Enterococcus faecalis [12]): 16 µg/mL (≈ 29 µM); MIC (Staphylococcus aureus [13]): 2 µg/mL (≈ 3.63 µM); MIC (Enterococcus faecalis [16]): 8 µg/mL (≈ 14.5 µM); MIC (Enterococcus faecium [20]): 16 µg/mL (≈ 29 µM); MIC (Enterococcus faecium [21]): 16 µg/mL (≈ 29 µM); MIC (Enterococcus faecium [25]): 16 µg/mL (≈ 29 µM); MIC (Enterococcus faecium [27]): 8 µg/mL (≈ 14.5 µM); MIC (Enterococcus faecium [28]): 8 µg/mL (≈ 14.5 µM); MIC (Enterococcus faecium [29]): 32 µg/mL (≈ 58 µM); MIC (Enterococcus faecium [32]): 8 µg/mL (≈ 14.5 µM)
3 | COC(=O)C1(C(=O)OC)Cc2cc(-c3ccc(N4C[C@H](CNC(C)=O)OC4=O)cc3F)ccc2N2CCOCC21 (some centres undefined) | – | – | – | > 32 µg/mL | 4 µg/mL (≈ 7.2 µM) | 32 µg/mL (≈ 57.6 µM) | 8 µg/mL (≈ 14.4 µM) | 16 µg/mL (≈ 28.8 µM) | – | 4 µg/mL (≈ 7.2 µM) | 4 µg/mL (≈ 7.2 µM) | 4 µg/mL (≈ 7.2 µM) | 32 µg/mL (≈ 57.6 µM) | > 32 µg/mL | 16 µg/mL (≈ 28.8 µM) | 4 µg/mL (≈ 7.2 µM) | – | > 32 µg/mL | 16 µg/mL (≈ 28.8 µM) | 16 µg/mL (≈ 28.8 µM) | MIC (Staphylococcus aureus [13]): 8 µg/mL (≈ 14.4 µM)
4 | CC(=O)NC[C@H]1CN(c2ccc(-c3ccc4c(c3)CC3(C(=O)NC(=O)NC3=O)C3CCCN43)c(F)c2)C(=O)O1 (some centres undefined) | 2 µg/mL (≈ 3.73 µM) | 16 µg/mL (≈ 29.9 µM) | 1 µg/mL (≈ 1.87 µM) | > 32 µg/mL | 4 µg/mL (≈ 7.47 µM) | 16 µg/mL (≈ 29.9 µM) | 2 µg/mL (≈ 3.73 µM) | 4 µg/mL (≈ 7.47 µM) | 4 µg/mL (≈ 7.47 µM) | ≤ 1 µg/mL | 2 µg/mL (≈ 3.73 µM) | 2 µg/mL (≈ 3.73 µM) | 32 µg/mL (≈ 59.8 µM) | 16 µg/mL (≈ 29.9 µM) | 4 µg/mL (≈ 7.47 µM) | 2 µg/mL (≈ 3.73 µM) | 2 to 4 µg/mL (≈ 3.73 to 7.47 µM) | > 32 µg/mL | 2 µg/mL (≈ 3.73 µM) | 2 µg/mL (≈ 3.73 µM) | MIC (Enterococcus faecium [3]): 4 µg/mL (≈ 7.47 µM); MIC (Enterococcus faecium [4]): 1 µg/mL (≈ 1.87 µM); MIC (Enterococcus faecalis [12]): 2 µg/mL (≈ 3.73 µM); MIC (Staphylococcus aureus [13]): ≤ 1 µg/mL; MIC (Enterococcus faecalis [16]): 2 µg/mL (≈ 3.73 µM); MIC (Enterococcus faecium [20]): 2 µg/mL (≈ 3.73 µM); MIC (Enterococcus faecium [21]): 4 µg/mL (≈ 7.47 µM); MIC (Enterococcus faecium [25]): 2 µg/mL (≈ 3.73 µM); MIC (Enterococcus faecium [27]): 2 µg/mL (≈ 3.73 µM); MIC (Enterococcus faecium [28]): 2 µg/mL (≈ 3.73 µM); MIC (Enterococcus faecium [29]): 4 µg/mL (≈ 7.47 µM); MIC (Enterococcus faecium [32]): 2 µg/mL (≈ 3.73 µM)
5 | CC(=O)NC[C@H]1CN(c2ccc(N3CCOCC3)c(F)c2)C(=O)O1 [LINEZOLID] | – | > 32 µg/mL | 0.5 µg/mL (≈ 1.48 µM) | > 32 µg/mL | – | 2 to 32 µg/mL (≈ 5.93 to 94.9 µM) | 2 to 4 µg/mL (≈ 5.93 to 11.9 µM) | 4 to 32 µg/mL (≈ 11.9 to 94.9 µM) | > 32 µg/mL | 2 µg/mL (≈ 5.93 µM) | 0.5 to 4 µg/mL (≈ 1.48 to 11.9 µM) | 2 to 4 µg/mL (≈ 5.93 to 11.9 µM) | > 32 µg/mL | 2 to 32 µg/mL (≈ 5.93 to 94.9 µM) | 2 to 4 µg/mL (≈ 5.93 to 11.9 µM) | 2 to 4 µg/mL (≈ 5.93 to 11.9 µM) | 2 µg/mL (≈ 5.93 µM) | > 32 µg/mL | 2 to 4 µg/mL (≈ 5.93 to 11.9 µM) | 2 to 8 µg/mL (≈ 5.93 to 23.7 µM) | MIC (Enterococcus faecium [20]): 2 µg/mL (≈ 5.93 µM); MIC (Enterococcus faecium [21]): 2 µg/mL (≈ 5.93 µM); MIC (Enterococcus faecium [25]): 2 to 4 µg/mL (≈ 5.93 to 11.9 µM); MIC (Enterococcus faecium [28]): 2 µg/mL (≈ 5.93 µM); MIC (Enterococcus faecium [32]): 4 µg/mL (≈ 11.9 µM)
6 | CN[C@H](CC(C)C)C(=O)N[C@H]1C(=O)N[C@@H](CC(N)=O)C(=O)N[C@H]2C(=O)N[C@H]3C(=O)N[C@H](C(=O)N[C@H](C(=O)O)c4cc(O)cc(O)c4-c4cc3ccc4O)[C@H](O)c3ccc(c(Cl)c3)Oc3cc2cc(c3O[C@@H]2O[C@H](CO)[C@@H](O)[C@H](O)[C@H]2O[C@H]2C[C@](C)(N)[C@H](O)[C@H](C)O2)Oc2ccc(cc2Cl)[C@H]1O [VANCOMYCIN] | 2 µg/mL (≈ 1.38 µM) | – | – | – | – | – | – | – | 2 µg/mL (≈ 1.38 µM) | – | – | – | – | – | – | – | > 32 µg/mL | – | – | – | MIC (Enterococcus faecalis [16]): > 32 µg/mL
